Laboratory results reported in the NIST ThermoML archive (doi:10.1016/j.jct.2016.10.023).

Assay: xn = mol fraction of the nth substance listed
Details: Constant-volume piezometry

CCCCC [pentane] + CCCO
Details | mass density [kg/m3]
483.15 K, 3273 kPa, Gas, x1 = 0.5 | 89.08
483.15 K, 3361 kPa, Gas, x1 = 0.5 | 96.03
483.15 K, 3529 kPa, Gas, x1 = 0.8 | 106.6
483.15 K, 3605 kPa, Fluid (supercritical or subcritical phases), x1 = 0.9 | 123.58
483.15 K, 3709 kPa, Fluid (supercritical or subcritical phases), x1 = 0.9 | 134.38
483.15 K, 3900 kPa, Fluid (supercritical or subcritical phases), x1 = 0.9 | 164.27
483.15 K, 3917 kPa, Fluid (supercritical or subcritical phases), x1 = 0.8 | 140.58
483.15 K, 3927 kPa, Liquid, x1 = 0.5 | 373.66
483.15 K, 3981 kPa, Fluid (supercritical or subcritical phases), x1 = 0.8 | 156.35
483.15 K, 4002 kPa, Fluid (supercritical or subcritical phases), x1 = 0.9 | 189.82
483.15 K, 4026 kPa, Liquid, x1 = 0.5 | 384.78
483.15 K, 4033 kPa, Fluid (supercritical or subcritical phases), x1 = 0.8 | 170.11
483.15 K, 4049 kPa, Fluid (supercritical or subcritical phases), x1 = 0.9 | 202.77
483.15 K, 4053 kPa, Fluid (supercritical or subcritical phases), x1 = 0.8 | 176.37
483.15 K, 4071 kPa, Fluid (supercritical or subcritical phases), x1 = 0.8 | 181.18
483.15 K, 4106 kPa, Fluid (supercritical or subcritical phases), x1 = 0.8 | 193.54
483.15 K, 4109 kPa, Fluid (supercritical or subcritical phases), x1 = 0.9 | 221.12
483.15 K, 4156 kPa, Fluid (supercritical or subcritical phases), x1 = 0.9 | 233.52
483.15 K, 4162 kPa, Fluid (supercritical or subcritical phases), x1 = 0.8 | 214.27
483.15 K, 4171 kPa, Fluid (supercritical or subcritical phases), x1 = 0.9 | 236.99
483.15 K, 4179 kPa, Fluid (supercritical or subcritical phases), x1 = 0.8 | 220.05
483.15 K, 4189 kPa, Fluid (supercritical or subcritical phases), x1 = 0.9 | 241.4
483.15 K, 4200 kPa, Fluid (supercritical or subcritical phases), x1 = 0.9 | 244.72
483.15 K, 4211 kPa, Fluid (supercritical or subcritical phases), x1 = 0.8 | 235.17
483.15 K, 4239 kPa, Fluid (supercritical or subcritical phases), x1 = 0.8 | 245.83
483.15 K, 4277 kPa, Fluid (supercritical or subcritical phases), x1 = 0.8 | 259.08
483.15 K, 4309 kPa, Fluid (supercritical or subcritical phases), x1 = 0.9 | 282.57
483.15 K, 4317 kPa, Fluid (supercritical or subcritical phases), x1 = 0.8 | 273.08
483.15 K, 4417 kPa, Fluid (supercritical or subcritical phases), x1 = 0.8 | 288.96
483.15 K, 4435 kPa, Fluid (supercritical or subcritical phases), x1 = 0.9 | 302.29
483.15 K, 4437 kPa, Liquid, x1 = 0.5 | 398.98
483.15 K, 4493 kPa, Fluid (supercritical or subcritical phases), x1 = 0.8 | 299.8
483.15 K, 4551 kPa, Fluid (supercritical or subcritical phases), x1 = 0.9 | 312.96
483.15 K, 4646 kPa, Fluid (supercritical or subcritical phases), x1 = 0.8 | 316.01
483.15 K, 4807 kPa, Liquid, x1 = 0.2 | 510.78
483.15 K, 4877 kPa, Fluid (supercritical or subcritical phases), x1 = 0.9 | 334.72
483.15 K, 4915 kPa, Fluid (supercritical or subcritical phases), x1 = 0.8 | 334.54
483.15 K, 5017 kPa, Liquid, x1 = 0.5 | 418.13
483.15 K, 5178 kPa, Fluid (supercritical or subcritical phases), x1 = 0.8 | 346.09
483.15 K, 5428 kPa, Fluid (supercritical or subcritical phases), x1 = 0.9 | 354.86
483.15 K, 5641 kPa, Fluid (supercritical or subcritical phases), x1 = 0.8 | 362.7
483.15 K, 6347 kPa, Liquid, x1 = 0.5 | 441.94
483.15 K, 7296 kPa, Liquid, x1 = 0.5 | 452.28
483.15 K, 8060 kPa, Liquid, x1 = 0.5 | 459.37
483.15 K, 8482 kPa, Fluid (supercritical or subcritical phases), x1 = 0.9 | 408.19
483.15 K, 8984 kPa, Fluid (supercritical or subcritical phases), x1 = 0.8 | 419.13
483.15 K, 9371 kPa, Liquid, x1 = 0.5 | 469.23
483.15 K, 10899 kPa, Liquid, x1 = 0.2 | 548.38
483.15 K, 16393 kPa, Fluid (supercritical or subcritical phases), x1 = 0.8 | 467.78
483.15 K, 16725 kPa, Liquid, x1 = 0.5 | 507.77
483.15 K, 19754 kPa, Liquid, x1 = 0.5 | 520.6
483.15 K, 21392 kPa, Liquid, x1 = 0.2 | 582.82
483.15 K, 24098 kPa, Fluid (supercritical or subcritical phases), x1 = 0.8 | 497.3
483.15 K, 27685 kPa, Liquid, x1 = 0.2 | 596.46
483.15 K, 28654 kPa, Liquid, x1 = 0.5 | 549.54
483.15 K, 34153 kPa, Fluid (supercritical or subcritical phases), x1 = 0.8 | 521.9
483.15 K, 37683 kPa, Liquid, x1 = 0.2 | 615.9
484.15 K, 3395 kPa, Gas, x1 = 0.5 | 96.03
485.15 K, 3427 kPa, Gas, x1 = 0.5 | 96.02
486.15 K, 3456 kPa, Gas, x1 = 0.5 | 96.02
487.15 K, 3750 kPa, Gas, x1 = 0.5 | 122.1
487.15 K, 4130 kPa, Liquid, x1 = 0.5 | 345.19
488.15 K, 3498 kPa, Gas, x1 = 0.5 | 96.01
488.15 K, 3783 kPa, Gas, x1 = 0.5 | 122.1
488.15 K, 4237 kPa, Liquid, x1 = 0.5 | 345.17
489.15 K, 3815 kPa, Gas, x1 = 0.5 | 122.09
489.15 K, 4203 kPa, Liquid, x1 = 0.5 | 325.83
490.15 K, 3453 kPa, Liquid, x1 = 0.2 | 471.25
491.15 K, 4012 kPa, Gas, x1 = 0.5 | 144.34

mass density [kg/m3], Liquid
Details | 486.15 K | 488.75 K | 489.55 K | 489.85 K | 491.65 K
x1 = 0.2 | – | – | – | 471.25 | –
x1 = 0.5 | 345.21 | 325.84 | 320.54 | – | 299.15
